Patent US12371439B2, “Crystalline form B of tetrahydrothienopyridine compound, preparation method, composition and application thereof” (Chengdu Shibeikang Biomedical Technology Co. Ltd., priority 2019, dated 2025)

Assay: Stability investigation of the crystalline forms (HPLC purity, samples placed open and flat)
Type: physicochemical
Description: The crystalline forms of the compound of formula I obtained from each example and each comparative preparation example were analyzed by HPLC.
Instrument and equipment: Agilent-1100 High Performance Liquid Chromatograph;
Chromatographic conditions and system suitability test: octadecylsilane-bonded silica gel was used as a filler; water (pH adjusted to 3.8 with phosphoric acid):acetonitrile (45:55) was used as a mobile phase; detection wavelength was 220 nm; theoretical tower plate number should not be less than 2000; the resolution should not be less than 2.0; and the resolution from other adjacent impurity peaks should meet the requirements.
Test solution: an appropriate amount of the compound obtained from each example was accurately weighed, dissolved in anhydrous ethanol, and diluted quantitatively to prepare a solution containing about 1 mg compound per 1 ml solution as the test solution.
Reference solution: 1 ml of reference solution of the compound of formula I was accurately measured, and placed into a 100 ml volumetric flask, diluted with anhydrous ethanol to the scale, and shaken well to obtain the reference solution. Reference substance: calibrated standard substance of the compound of formula I provided by Chengdu Shibeikang Biomedical Technology Co., Ltd.
Determination method: according to General Chapter 0512 High Performance Liquid Chromatography in Chinese Pharmacopoeia (2015 Edition) Volume IV, 10 μl of the test solution and 10 μl of the reference solution were accurately measured respectively, and injected into the liquid chromatograph to record chromatograms.
Samples of the crystalline form B from each Example and the crystalline form from each comparative preparation example were placed in an open and flat way to investigate 5-day stability and 10-day stability of the samples under the conditions of light (4500 Lux), heating at 40° C. and 60° C. and high humidity of 75% and 90%, respectively. The detection was carried out according to the determination method in Test 1, and HPLC purity detection results were shown in the table below.

COC(=O)[C@H](c1ccccc1Cl)N1CC[C@@H]2SC(=O)C=C2C1 (racemic) [Comparative preparation example 1, methyl (S)-2-(2-chlorophenyl)-2-((S)-2-oxo-2,6,7,7a-tetrahydrothieno[3,2-c]pyridin-5(4H)-yl)acetate, reference compound]
HPLC purity Day 0 (%) (heating at 40° C.): 96.89%
HPLC purity Day 5 (%) (heating at 40° C.): 96.31%
HPLC purity Day 10 (%) (heating at 40° C.): 95.35%
HPLC purity Day 0 (%) (heating at 60° C.): 96.89%
HPLC purity Day 5 (%) (heating at 60° C.): 95.45%
HPLC purity Day 10 (%) (heating at 60° C.): 94.37%
HPLC purity Day 0 (%) (high humidity of 90%): 96.89%
HPLC purity Day 5 (%) (high humidity of 90%): 96.75%
HPLC purity Day 10 (%) (high humidity of 90%): 96.69%
HPLC purity Day 0 (%) (light (4500 Lux)): 96.89%
HPLC purity Day 5 (%) (light (4500 Lux)): 96.80%
HPLC purity Day 10 (%) (light (4500 Lux)): 96.75%

COC(=O)[C@H](c1ccccc1Cl)N1CC[C@@H]2SC(=O)C=C2C1 (racemic) [Comparative preparation example 2, methyl (S)-2-(2-chlorophenyl)-2-((S)-2-oxo-2,6,7,7a-tetrahydrothieno[3,2-c]pyridin-5(4H)-yl)acetate, reference compound]
HPLC purity Day 0 (%) (heating at 40° C.): 96.43%
HPLC purity Day 5 (%) (heating at 40° C.): 96.01%
HPLC purity Day 10 (%) (heating at 40° C.): 94.78%
HPLC purity Day 0 (%) (heating at 60° C.): 96.43%
HPLC purity Day 5 (%) (heating at 60° C.): 95.23%
HPLC purity Day 10 (%) (heating at 60° C.): 93.89%
HPLC purity Day 0 (%) (high humidity of 90%): 96.43%
HPLC purity Day 5 (%) (high humidity of 90%): 96.33%
HPLC purity Day 10 (%) (high humidity of 90%): 96.23%
HPLC purity Day 0 (%) (light (4500 Lux)): 96.43%
HPLC purity Day 5 (%) (light (4500 Lux)): 96.35%
HPLC purity Day 10 (%) (light (4500 Lux)): 96.27%

COC(=O)[C@H](c1ccccc1Cl)N1CC[C@@H]2SC(=O)C=C2C1 (racemic) [Comparative preparation example 3, methyl (S)-2-(2-chlorophenyl)-2-((S)-2-oxo-2,6,7,7a-tetrahydrothieno[3,2-c]pyridin-5(4H)-yl)acetate, reference compound]
HPLC purity Day 0 (%) (heating at 40° C.): 97.73%
HPLC purity Day 5 (%) (heating at 40° C.): 97.22%
HPLC purity Day 10 (%) (heating at 40° C.): 96.13%
HPLC purity Day 0 (%) (heating at 60° C.): 97.73%
HPLC purity Day 5 (%) (heating at 60° C.): 96.60%
HPLC purity Day 10 (%) (heating at 60° C.): 95.23%
HPLC purity Day 0 (%) (high humidity of 90%): 97.73%
HPLC purity Day 5 (%) (high humidity of 90%): 97.66%
HPLC purity Day 10 (%) (high humidity of 90%): 97.58%
HPLC purity Day 0 (%) (light (4500 Lux)): 97.73%
HPLC purity Day 5 (%) (light (4500 Lux)): 97.70%
HPLC purity Day 10 (%) (light (4500 Lux)): 97.65%

COC(=O)[C@H](c1ccccc1Cl)N1CC[C@@H]2SC(=O)C=C2C1 [Example 1, methyl (S)-2-(2-chlorophenyl)-2-((S)-2-oxo-2,6,7,7a-tetrahydrothieno[3,2-c]pyridin-5(4H)-yl)acetate]
HPLC purity Day 0 (%) (heating at 40° C.): 99.82%
HPLC purity Day 5 (%) (heating at 40° C.): 99.82%
HPLC purity Day 10 (%) (heating at 40° C.): 99.81%
HPLC purity Day 0 (%) (heating at 60° C.): 99.82%
HPLC purity Day 5 (%) (heating at 60° C.): 99.79%
HPLC purity Day 10 (%) (heating at 60° C.): 99.77%
HPLC purity Day 0 (%) (high humidity of 90%): 99.82%
HPLC purity Day 5 (%) (high humidity of 90%): 99.82%
HPLC purity Day 10 (%) (high humidity of 90%): 99.81%
HPLC purity Day 0 (%) (light (4500 Lux)): 99.82%
HPLC purity Day 5 (%) (light (4500 Lux)): 99.82%
HPLC purity Day 10 (%) (light (4500 Lux)): 99.82%

COC(=O)[C@H](c1ccccc1Cl)N1CC[C@@H]2SC(=O)C=C2C1 [Example 2, methyl (S)-2-(2-chlorophenyl)-2-((S)-2-oxo-2,6,7,7a-tetrahydrothieno[3,2-c]pyridin-5(4H)-yl)acetate]
HPLC purity Day 0 (%) (heating at 40° C.): 99.92%
HPLC purity Day 5 (%) (heating at 40° C.): 99.92%
HPLC purity Day 10 (%) (heating at 40° C.): 99.91%
HPLC purity Day 0 (%) (heating at 60° C.): 99.92%
HPLC purity Day 5 (%) (heating at 60° C.): 99.87%
HPLC purity Day 10 (%) (heating at 60° C.): 99.84%
HPLC purity Day 0 (%) (high humidity of 90%): 99.92%
HPLC purity Day 5 (%) (high humidity of 90%): 99.92%
HPLC purity Day 10 (%) (high humidity of 90%): 99.91%
HPLC purity Day 0 (%) (light (4500 Lux)): 99.92%
HPLC purity Day 5 (%) (light (4500 Lux)): 99.92%
HPLC purity Day 10 (%) (light (4500 Lux)): 99.92%

COC(=O)[C@H](c1ccccc1Cl)N1CC[C@@H]2SC(=O)C=C2C1 [Example 3, methyl (S)-2-(2-chlorophenyl)-2-((S)-2-oxo-2,6,7,7a-tetrahydrothieno[3,2-c]pyridin-5(4H)-yl)acetate]
HPLC purity Day 0 (%) (heating at 40° C.): 99.94%
HPLC purity Day 5 (%) (heating at 40° C.): 99.93%
HPLC purity Day 10 (%) (heating at 40° C.): 99.93%
HPLC purity Day 0 (%) (heating at 60° C.): 99.94%
HPLC purity Day 5 (%) (heating at 60° C.): 99.90%
HPLC purity Day 10 (%) (heating at 60° C.): 99.88%
HPLC purity Day 0 (%) (high humidity of 90%): 99.94%
HPLC purity Day 5 (%) (high humidity of 90%): 99.94%
HPLC purity Day 10 (%) (high humidity of 90%): 99.94%
HPLC purity Day 0 (%) (light (4500 Lux)): 99.94%
HPLC purity Day 5 (%) (light (4500 Lux)): 99.94%
HPLC purity Day 10 (%) (light (4500 Lux)): 99.94%

COC(=O)[C@H](c1ccccc1Cl)N1CC[C@@H]2SC(=O)C=C2C1 [Example 4, methyl (S)-2-(2-chlorophenyl)-2-((S)-2-oxo-2,6,7,7a-tetrahydrothieno[3,2-c]pyridin-5(4H)-yl)acetate]
HPLC purity Day 0 (%) (heating at 40° C.): 99.89%
HPLC purity Day 5 (%) (heating at 40° C.): 99.89%
HPLC purity Day 10 (%) (heating at 40° C.): 99.88%
HPLC purity Day 0 (%) (heating at 60° C.): 99.89%
HPLC purity Day 5 (%) (heating at 60° C.): 99.87%
HPLC purity Day 10 (%) (heating at 60° C.): 99.86%
HPLC purity Day 0 (%) (high humidity of 90%): 99.89%
HPLC purity Day 5 (%) (high humidity of 90%): 99.89%
HPLC purity Day 10 (%) (high humidity of 90%): 99.89%
HPLC purity Day 0 (%) (light (4500 Lux)): 99.89%
HPLC purity Day 5 (%) (light (4500 Lux)): 99.89%
HPLC purity Day 10 (%) (light (4500 Lux)): 99.89%

COC(=O)[C@H](c1ccccc1Cl)N1CC[C@@H]2SC(=O)C=C2C1 [Example 5, methyl (S)-2-(2-chlorophenyl)-2-((S)-2-oxo-2,6,7,7a-tetrahydrothieno[3,2-c]pyridin-5(4H)-yl)acetate]
HPLC purity Day 0 (%) (heating at 40° C.): 99.87%
HPLC purity Day 5 (%) (heating at 40° C.): 99.87%
HPLC purity Day 10 (%) (heating at 40° C.): 99.87%
HPLC purity Day 0 (%) (heating at 60° C.): 99.87%
HPLC purity Day 5 (%) (heating at 60° C.): 99.85%
HPLC purity Day 10 (%) (heating at 60° C.): 99.85%
HPLC purity Day 0 (%) (high humidity of 90%): 99.87%
HPLC purity Day 5 (%) (high humidity of 90%): 99.87%
HPLC purity Day 10 (%) (high humidity of 90%): 99.86%
HPLC purity Day 0 (%) (light (4500 Lux)): 99.87%
HPLC purity Day 5 (%) (light (4500 Lux)): 99.87%
HPLC purity Day 10 (%) (light (4500 Lux)): 99.86%

COC(=O)[C@H](c1ccccc1Cl)N1CC[C@@H]2SC(=O)C=C2C1 [Example 6, methyl (S)-2-(2-chlorophenyl)-2-((S)-2-oxo-2,6,7,7a-tetrahydrothieno[3,2-c]pyridin-5(4H)-yl)acetate]
HPLC purity Day 0 (%) (heating at 40° C.): 99.91%
HPLC purity Day 5 (%) (heating at 40° C.): 99.91%
HPLC purity Day 10 (%) (heating at 40° C.): 99.90%
HPLC purity Day 0 (%) (heating at 60° C.): 99.91%
HPLC purity Day 5 (%) (heating at 60° C.): 99.89%
HPLC purity Day 10 (%) (heating at 60° C.): 99.88%
HPLC purity Day 0 (%) (high humidity of 90%): 99.91%
HPLC purity Day 5 (%) (high humidity of 90%): 99.91%
HPLC purity Day 10 (%) (high humidity of 90%): 99.90%
HPLC purity Day 0 (%) (light (4500 Lux)): 99.91%
HPLC purity Day 5 (%) (light (4500 Lux)): 99.91%
HPLC purity Day 10 (%) (light (4500 Lux)): 99.90%

COC(=O)[C@H](c1ccccc1Cl)N1CC[C@@H]2SC(=O)C=C2C1 [Example 7, methyl (S)-2-(2-chlorophenyl)-2-((S)-2-oxo-2,6,7,7a-tetrahydrothieno[3,2-c]pyridin-5(4H)-yl)acetate]
HPLC purity Day 0 (%) (heating at 40° C.): 99.88%
HPLC purity Day 5 (%) (heating at 40° C.): 99.88%
HPLC purity Day 10 (%) (heating at 40° C.): 99.88%
HPLC purity Day 0 (%) (heating at 60° C.): 99.88%
HPLC purity Day 5 (%) (heating at 60° C.): 99.85%
HPLC purity Day 10 (%) (heating at 60° C.): 99.84%
HPLC purity Day 0 (%) (high humidity of 90%): 99.88%
HPLC purity Day 5 (%) (high humidity of 90%): 99.88%
HPLC purity Day 10 (%) (high humidity of 90%): 99.87%
HPLC purity Day 0 (%) (light (4500 Lux)): 99.88%
HPLC purity Day 5 (%) (light (4500 Lux)): 99.88%
HPLC purity Day 10 (%) (light (4500 Lux)): 99.87%
